Reference: ChEMBL document CHEMBL3612033, “Synthesis of 3,4-diaminobenzoyl derivatives as factor Xa inhibitors” (Eur J Med Chem, 2015)

Tests used:
[1] = molecular target: T1, Coagulation factor X (Oryctolagus cuniculus) (UniProt O19045); test: Inhibition of F10a in rabbit plasma assessed as ratio of compound prothrombin time to vehicle control prothrombin time at 100 nM after 2 mins by automatic coagulation analyser
T1 sequence (whole entry): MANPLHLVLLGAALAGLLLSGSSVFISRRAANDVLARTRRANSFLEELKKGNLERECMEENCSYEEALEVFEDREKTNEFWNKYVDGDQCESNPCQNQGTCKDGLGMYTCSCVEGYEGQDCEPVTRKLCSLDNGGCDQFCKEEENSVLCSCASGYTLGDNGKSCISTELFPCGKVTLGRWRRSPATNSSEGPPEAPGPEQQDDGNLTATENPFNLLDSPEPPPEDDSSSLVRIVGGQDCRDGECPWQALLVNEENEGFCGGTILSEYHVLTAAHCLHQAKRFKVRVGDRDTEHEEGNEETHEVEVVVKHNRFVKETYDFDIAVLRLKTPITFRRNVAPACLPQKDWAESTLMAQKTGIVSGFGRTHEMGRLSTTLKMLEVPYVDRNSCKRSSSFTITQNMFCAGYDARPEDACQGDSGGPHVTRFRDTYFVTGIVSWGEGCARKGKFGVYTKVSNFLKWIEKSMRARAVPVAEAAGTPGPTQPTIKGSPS

[2] = molecular target: Coagulation factor X (Homo sapiens, UniProt P00742); test: Inhibition of human F10a using S-2765 as substrate preincubated for 10 mins followed by substrate addition by microplate reader analysis
[3] = molecular target: Trypsin (Homo sapiens, UniProt P07477+P07478+P35030); test: Inhibition of trypsin (unknown origin) using S-2222 as substrate; format: protein assay
[4] = molecular target: Prothrombin (Bos taurus, UniProt P00735); test: Inhibition of bovine plasma thrombin using S-2238 as substrate

Coagulation factor X, sequence (P00742 41-179 limits assumed): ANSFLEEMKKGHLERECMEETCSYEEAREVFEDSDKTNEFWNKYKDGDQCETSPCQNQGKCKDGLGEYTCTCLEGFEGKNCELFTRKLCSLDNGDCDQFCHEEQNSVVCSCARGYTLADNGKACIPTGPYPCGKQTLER
Coagulation factor X, sequence (P00742 235-488 limits assumed): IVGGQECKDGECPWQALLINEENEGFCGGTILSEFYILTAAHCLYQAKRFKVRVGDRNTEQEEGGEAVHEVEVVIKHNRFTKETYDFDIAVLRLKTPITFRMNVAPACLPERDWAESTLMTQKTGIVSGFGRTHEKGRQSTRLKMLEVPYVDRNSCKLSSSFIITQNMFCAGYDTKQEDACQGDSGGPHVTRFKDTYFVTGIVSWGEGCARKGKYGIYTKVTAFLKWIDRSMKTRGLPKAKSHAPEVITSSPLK

## COc1cc(C(=O)Nc2cc(C(N)=O)ccc2NC(=O)c2ccc(N3CCCCC3=O)cc2)cc(OC)c1OC
[1]
  Ratio: 1.16

## NC(=O)c1ccc(NC(=O)c2ccc(-n3ccccc3=O)cc2)c(NC(=O)c2ccc(Cl)s2)c1
[1]
  Ratio: 1.33

## NC(=O)c1ccc(NC(=O)c2ccc(-n3ccccc3=O)cc2)c(NC(=O)c2ccc(NC=O)cc2)c1
[1]
  Ratio: 1.54

## COc1cc(C(=O)Nc2cc(C(N)=O)ccc2NC(=O)c2ccc(N3CCCC3=O)cc2)cc(OC)c1OC
[1]
  Ratio: 1.27

## NC(=O)c1ccc(NC(=O)c2ccc(-n3ccccc3=O)cc2)c(NC(=O)c2ccc(Cl)nc2)c1
[1]
  Ratio: 1.27

## NC(=O)c1ccc(NC(=O)c2ccc(-n3ccccc3=O)cc2)c(NC(=O)c2ccc(Cl)c(Cl)c2)c1
[2]
  IC50: 6.5 nM

## NC(=O)c1ccc(NC(=O)c2ccc(-n3ccccc3=O)cc2)c(NC(=O)c2ccc(Br)cc2)c1
[2]
  IC50: 25.9 nM

## COc1ccc(C(=O)Nc2cc(C(N)=O)ccc2NC(=O)c2ccc(-n3ccccc3=O)cc2)cc1OC
[3]
  IC50: > 100000 nM
[4]
  IC50: > 100000 nM
[2]
  IC50: 17.1 nM
[1]
  Ratio: 1.94

## NC(=O)c1ccc(NC(=O)c2ccc(-n3ccccc3=O)cc2)c(NC(=O)c2ccc3ncoc3c2)c1
[1]
  Ratio: 1.66

## CC(=O)Nc1ccc(C(=O)Nc2cc(C(N)=O)ccc2NC(=O)c2ccc(-n3ccccc3=O)cc2)cc1
[2]
  IC50: 15.6 nM
[1]
  Ratio: 1.72

## COc1cc(C(=O)Nc2ccc(C(N)=O)cc2NC(=O)c2ccc(-n3ccccc3=O)cc2)cc(OC)c1OC
[1]
  Ratio: 1.07

## COc1ccc(C(=O)Nc2cc(C(N)=O)ccc2NC(=O)c2ccc(-n3ccccc3=O)cc2)cc1
[1]
  Ratio: 1.87

## NC(=O)c1ccc(NC(=O)c2ccc(-n3ccccc3=O)cc2)c(NC(=O)c2ccc(F)cc2)c1
[1]
  Ratio: 1.27

## CCOC(=O)c1ccc(NC(=O)c2ccc(-n3ccccc3=O)cc2)c(NC(=O)c2cc(OC)c(OC)c(OC)c2)c1
[1]
  Ratio: 1.21

## COc1cc(C(=O)Nc2cc(C(=O)O)ccc2NC(=O)c2ccc(-n3ccccc3=O)cc2)cc(OC)c1OC
[1]
  Ratio: 1.15

## COc1cc(C(=O)Nc2cc(C(N)=O)ccc2NC(=O)c2ccc(-n3ccccc3=O)cc2)cc(OC)c1OC
[2]
  IC50: 28.6 nM
[1]
  Ratio: 2.06

## COc1cc(C(=O)Nc2cc(C(N)=O)ccc2NC(=O)c2ccn(-c3ccccc3)c(=O)c2)cc(OC)c1OC
[1]
  Ratio: 2.1

## NC(=O)c1ccc(NC(=O)c2ccc(-n3ccccc3=O)cc2)c(NC(=O)c2ccc(Cl)cc2)c1
[1]
  Ratio: 1.88
